Test results published in paper PMC3587609, “A Novel Cell-Penetrating Peptide Derived from Human Eosinophil Cationic Protein” (PLoS ONE, 2013).

Key:
CHO-pgsA745 cells = test: Cell-based ELISA: binding to GAG-deficient CHO cells; set-up: species or system Chinese hamster; conditions: CHO-pgsA745 cells (no GAG), 5 µM FITC-ECP32–41, 4°C, 1 h, CHO-K1 normalized to 100%, n = 3
Experimental: (§1) Cell-membrane GAGs including HS, CS/DS, and HA are necessary for CPP internalization, [6]. To assess the effect of GAGs on ECP^32–41 cellular binding ability, soluble GAGs including LMWH, CSC, and HA were used as competitors to inhibit the attachment of ECP^32–41 to Beas-2B cells. […] To clarify the roles of cell-surface HS and CS, the binding of ECP^32–41 to wild-type and two mutant strains of Chinese hamster ovary (CHO) cells was assessed by ELISA. […] CHO-pgsA745 cells are deficient in xylosyltransferase so that no GAG was present on the surface. […] GAGs, and especially HSPGs, are therefore crucial for the initial interaction of ECP^32–41 with cell surfaces.
(§2) Figure 2 Cell-surface GAG-dependent binding of ECP^32–41. […] After washed twice with PBS, cells were subjected to ELISA. […] (B) CHO cells were incubated with 5 µM FITC-ECP^32–41 at 4°C for 1 h, washed twice with PBS, and subjected to ELISA. The amount of FITC-ECP^32–41 bound to CHO-K1 cells was normalized to 100%.
(§3) Cells (2×10^4/well) were seeded into 96-well black plate and incubated under a 5% CO2 atmosphere at 37°C for 24 h. Each well was then washed with 150 µl ice-cold PBS. […] Each well was then washed with 100 µl PBS and the FITC fluorescent intensity for each sample was measured using a fluorescence spectrophotometer (Wallac Victor II, Perkin Elmer, USA) and excitation and emission wavelengths of 485 nm and 521 nm respectively.

Beas-2B cells [1] = test: Membrane disruption assay (LDH leakage); type: cell-based; conditions: up to 100 µM, 37°C, 24 h, 0.1% Triton X-100 = 100% leakage, P>0.05, n = 3
Experimental: Lactate dehydrogenase (LDH) was used to quantify membrane disruption. The release of LDH from cells was measured by Promega CytoTox-ONE assay (Promega, USA). […] Cell samples were then exposed to different concentrations of ECP^32–41. After 24 h, 100 µl of extracellular medium was transferred to a black 96-well plate containing 100 µl of CytoTox-ONE reagent, incubated at RT for 10 min. Fluorescent intensity for each sample was measured using a fluorescence spectrophotometer (Wallac Victor II, Perkin Elmer, USA) and excitation and emission wavelengths of 540 nm and 590 nm respectively.

Beas-2B cells [2] = test: Cell-based ELISA: binding of FITC-peptides to Beas-2B cells; conditions: 5 µM FITC-peptides, 4°C, 1 h, washed twice with PBS, cell-based ELISA (FITC fluorescence), FITC-ECP32–41 bound normalized to 100%, mean ± S.D., n = 4
Experimental: Cells (2×10^4/well) were seeded into 96-well black plate and incubated under a 5% CO2 atmosphere at 37°C for 24 h. Each well was then washed with 150 µl ice-cold PBS. To prevent non-specific antibody binding, BSA was used as a blocking agent, and PBS containing 2% (w/v) BSA was added to each well at 4°C and incubated for 1 h. The wells were then washed with 100 µl ice-cold PBS. FITC-conjugated peptides were diluted to 10, 20, or 100 µM in PBS and then, medium (95 µl) and a peptide/PBS solution (5 µl) were gently mixed, added into a well, and the plate was placed on ice for 1 h. Each well was then washed with 100 µl PBS and the FITC fluorescent intensity for each sample was measured using a fluorescence spectrophotometer (Wallac Victor II, Perkin Elmer, USA) and excitation and emission wavelengths of 485 nm and 521 nm respectively.

CHO-pgsD677 cells = test: Cell-based ELISA: binding to HS-deficient CHO cells; set-up: species or system Chinese hamster; conditions: CHO-pgsD677 cells (lack HS), 5 µM FITC-ECP32–41, 4°C, 1 h, CHO-K1 normalized to 100%, n = 3
Experimental: as §1, §2, §3

[3] = Circular dichroism spectroscopy; type: physicochemical; conditions: data not shown
CHO pgsD-677 cells = test: Internalization into HS-deficient CHO cells (flow cytometry and CLSM); type: cell-based, Chinese hamster; conditions: CHO pgsD677 cells, 5 µM FITC-ECP32–41, 37°C, 1 h
Experimental: Figure 3 HS-dependent ECP^32–-41 internalization. […] (B) Samples of wild-type and mutant CHO cells were each incubated with 5 µM FITC-ECP^32–41 at 37°C for 1 h and then subjected to flow cytometry. (C) Samples of wild-type and mutant CHO cells were incubated with 5 µM FITC-ECP^32–41 at 37°C for 1 h., then washed twice with 1 ml PBS, and fixed for CLSM. Nuclei were stained with Hoechst 34850. Scale bar: 20 µm. (D) Beas-2B cells were treated with heparinase I, heparinase III, or chondroitinase ABC for 2 h prior to incubation with 5 µM FITC-ECP^32–41 at 37°C for 1 h. […] Untreated cells served as the controls. The fluorescence of cells treated with FITC-ECP^32–41 was set to 100%. […] (E) Beas-2B cells were treated with heparinase I, heparinase III, or chondroitinase ABC for 2 h. […] Untreated cells served as the control. The fluorescence of the untreated cells was set to 100%.
Cells (3.0×10^5/well) were added into six-well plates and cultured in the indicated medium. After 24 h, each FITC-peptide, dissolved in medium, was added into a well and the samples incubated for 1 h. Cells were then harvested, washed, and suspended in PBS. The fluorescent intensities of the cell samples were measured using a FACSCalibur flow cytometer (BD Biosciences, Franklin Lakes, NJ) and excitation and emission wavelengths of 488 nm and 515–545 nm respectively. […]

Sequence: NYRWRCKNQN [ECP^32–41]
- reduction of binding versus CHO-K1 cells (CHO-pgsA745 cells): 52%
- LDH levels (membrane disruption), treated versus untreated cells (Beas-2B cells [1]): no significant changes
- Binding (%) (Beas-2B cells [2]): 100%
- reduction of binding versus CHO-K1 cells (CHO-pgsD677 cells): 31%
- secondary structure by circular dichroism spectroscopy [3]: random coil
- internalization monitored by CLSM (CHO pgsD-677 cells): but not for CHO pgsD677 or pgsA745 cells
